# According to US20090062355A1, “Pharmaceutical Product” (Takeda Pharmaceutical Company Limited, priority 2006, published 2009):
# Columns and labels:
# Assay type in all cases: cell-based
# [1] = tested on: Peripheral Blood Mononuclear Cells; assay: Influence on binding of LPS to PBMC (flow cytometry); conditions: 10 μM; 4° C. 30 min, then labeled LPS 50 ng/mL, 1% human serum, 37° C. 45 min; FIG. 2
# Description: FIG. 2 is a graph showing the effects of test compound 1, anti-CD14 antibody and anti-CCR5 antibody on the binding of LPS to PBMC. With an average of triplicate measurement values of LPS alone as 100%, % averages of triplicate measurement values of other groups are shown, mean±standard error (Experimental Example 6, results of 4 independent tests using PBMC obtained from the blood of different 4 subjects).
# Peripheral Blood Mononuclear Cells were Separated by a conventional method, and reacted with test compound 1 (compound 72 of Reference Example B66), anti-human CD14 monoclonal antibody MEM-18 and anti-human CCR5 monoclonal antibody 2D7 (negative control) at 4° C. for 30 min. The cells were reacted with fluorescence label LPS (E. coli O55:B5, Alexa Fluor® 488-labeled, 50 ng/mL) in the presence of 1% human serum at 37° C. for 45 min. The cells (10,000 cells) were washed and the binding of fluorescence label LPS was examined by flow cytometry.
# [2] = tested on: mouse macrophage cell line RAW264.7 cells; assay: Suppressive action on production of cytokine from LPS stimulated macrophage (BioPlex cytokine assay); conditions: 100 nM + LPS 10 ng/mL, overnight
# Method: A suppressive effect of test compound 1 (compound 72 of Reference Example B66) on the production of various cytokines by lipopolysaccharide (LPS), which is a TLR4 agonist, using mouse macrophage cell line RAW264.7 cells was examined. The day before the experiment, the cells were suspended to 1×10^6 cells/mL in RPMI1640 medium supplemented with 10% inactivated fetal bovine serum, plated on a 96 well microplate at 0.1 mL/well and incubated at 37° C., 5% CO2/95% air overnight. The medium was changed, and test compound 1 (final concentration 100 nM) and LPS (final concentration 10 ng/mL) were added. After overnight culture, the content of cytokine in the culture supernatant was quantified by BioPlex cytokine assay (Bio-Rad). Test compound 1 was dissolved in dimethyl sulfoxide (DMSO) to 10 mM, diluted with RPMI1640 medium supplemented with 1% inactivated fetal bovine serum to 0.1 mM, further diluted with the medium to 10-fold concentration of the final concentration and 1/10 thereof was added.
# [3] = tested on: mouse macrophage cell line RAW264.7 cells; assay: Suppressive action on expression caused by gene induction by LPS stimulation (DNA Chip); conditions: 100 nM + LPS 10 ng/mL, 6 hr
# Method: A suppressive effect of test compound 1 (compound 72 of • Reference Example B66) on the production of various mediators by lipopolysaccharide (LPS), which is a TLR4 agonist, in mouse macrophage cell line RAW264.7 cells was examined. The day before the experiment, the cells were suspended to 5×10^5 cells/mL in RPMI1640 medium supplemented with 10% inactivated fetal bovine serum, plated on a plate and incubated at 37° C., 5% CO2/95% air overnight. The medium was changed to RPMI1640 medium supplemented with 1% inactivated fetal bovine serum, and test compound 1 (final concentration 100 nM) and LPS (final concentration 10 ng/mL) were added. After culture for 6 hr, RNA was prepared by a conventional method and gene was analyzed using DNA Chip (Mu73A, Affimetrix) and Gene Spring ver. 4. The test substance was dissolved in N,N-dimethylformamide to 10 mM and diluted with a medium.
smiles,measurement,setting,value
"CCOC(=O)C1=CCCC[C@H]1S(=O)(=O)Nc1ccc(F)cc1Cl [test compound 1, ethyl (6R)-6-[(2-chloro-4-fluoroanilino)sulfonyl]-1-cyclohexene-1-carboxylate]",binding of fluorescence label LPS to PBMC,[1],completely failed to inhibit
same,expression amount of cytokines: IL1beta,"[2]; control 0, LPS 97",2 pg/mL
same,expression amount of cytokines: IL12(p40),"[2]; control 3, LPS 18",4 pg/mL
same,expression amount of cytokines: IL2,"[2]; control 3, LPS 20",8 pg/mL
same,expression amount of cytokines: IL3,"[2]; control 3, LPS 22",3 pg/mL
same,expression amount of cytokines: IFNgamma,"[2]; control 9, LPS 31",8 pg/mL
same,expression amount of cytokines: IL17,"[2]; control 9, LPS 50",13 pg/mL
same,expression amount of cytokines: KC,"[2]; control 10, LPS 79",22 pg/mL
same,expression amount of cytokines: IL12(p70),"[2]; control 12, LPS 48",13 pg/mL
same,expression amount of cytokines: IL1alpha,"[2]; control 21, LPS 74",47 pg/mL
same,expression amount of cytokines: IL10,"[2]; control 25, LPS 80",20 pg/mL
same,expression amount of cytokines: RANTES,"[2]; control 31, LPS 1520",48 pg/mL
same,expression amount of cytokines: TNFalpha,"[2]; control 48, LPS 10483",125 pg/mL
same,expression amount of cytokines: GM-CSF,"[2]; control 53, LPS 135",85 pg/mL
same,expression amount of cytokines: IL6,"[2]; control 82, LPS 233",152 pg/mL
same,gene variation by LPS stimulation,[3]; all genes analyzed that showed variation by LPS,suppressed almost all the gene variation analyzed
same,expression of mRNA (fluorescence intensity): MMP-9,"[3]; control 0, LPS 3571.5",352.6
same,expression of mRNA (fluorescence intensity): bcl-3,"[3]; control 0, LPS 7512.6",158.7
same,expression of mRNA (fluorescence intensity): Guanylate binding protein-2,"[3]; control 0, LPS 8931.2",19.4
same,expression of mRNA (fluorescence intensity): RANTES,"[3]; control 0, LPS 12030.1",34.8
same,expression of mRNA (fluorescence intensity): IL-1 beta,"[3]; control 0, LPS 18712.2",424.9
same,expression of mRNA (fluorescence intensity): Cytokine inducible SH2-containing protein,"[3]; control 0, LPS 22669.3",2092.5
same,expression of mRNA (fluorescence intensity): MCP-3,"[3]; control 2.4, LPS 3159.0",46.5
same,expression of mRNA (fluorescence intensity): Adenosine A2b receptor,"[3]; control 2.7, LPS 2092.2",141.9
same,expression of mRNA (fluorescence intensity): inducible nitric oxide synthase,"[3]; control 9.3, LPS 1251.6",125.9
same,expression of mRNA (fluorescence intensity): COX-2,"[3]; control 24.4, LPS 13981.9",71.9
same,expression of mRNA (fluorescence intensity): CCR1,"[3]; control 26.5, LPS 1877.4",137.9
same,expression of mRNA (fluorescence intensity): IL-6,"[3]; control 26.7, LPS 5345.6",0
same,expression of mRNA (fluorescence intensity): IP-10,"[3]; control 40.1, LPS 12954.7",30.7
same,expression of mRNA (fluorescence intensity): Histidine decarboxylase,"[3]; control 44.3, LPS 4472.2",21.1
same,expression of mRNA (fluorescence intensity): IL-4 receptor,"[3]; control 84.4, LPS 7015.8",160.6
same,expression of mRNA (fluorescence intensity): MCP-1,"[3]; control 115.6, LPS 24184.7",336.8
same,expression of mRNA (fluorescence intensity): Fas antigen,"[3]; control 132.7, LPS 2507.5",202.7
same,expression of mRNA (fluorescence intensity): A20,"[3]; control 143.9, LPS 1044.3",204.0
same,expression of mRNA (fluorescence intensity): IL-1 receptor antagonist,"[3]; control 156.9, LPS 21942.3",538.2
same,expression of mRNA (fluorescence intensity): P2X4,"[3]; control 193.0, LPS 1239.3",227.0
same,expression of mRNA (fluorescence intensity): plasminogen activator inhibitor,"[3]; control 199.1, LPS 15207.5",67.5
same,expression of mRNA (fluorescence intensity): TNF receptor associated factor,"[3]; control 213.6, LPS 2457.3",311.4
same,expression of mRNA (fluorescence intensity): IL-10,"[3]; control 221.8, LPS 6617.9",128.1
same,expression of mRNA (fluorescence intensity): Janus kinase 2,"[3]; control 228.3, LPS 2175.1",310.9
same,expression of mRNA (fluorescence intensity): argininosuccinate synthetase,"[3]; control 376.7, LPS 8623.2",478.9
same,expression of mRNA (fluorescence intensity): Major histocompatibility complex,"[3]; control 378.5, LPS 3399.6",353.0
same,expression of mRNA (fluorescence intensity): serum amyloid A,"[3]; control 393.1, LPS 24253.2",1041.0
same,expression of mRNA (fluorescence intensity): Caspase-11,"[3]; control 436.0, LPS 6975.7",763.5
same,expression of mRNA (fluorescence intensity): Phosphatase PAC1,"[3]; control 653.7, LPS 12520.7",765.9
same,expression of mRNA (fluorescence intensity): G-CSF,"[3]; control 698.4, LPS 18440.5",844.9
same,expression of mRNA (fluorescence intensity): IL-18,"[3]; control 708.7, LPS 4881.4",429.4
same,expression of mRNA (fluorescence intensity): MIP-2,"[3]; control 819.2, LPS 12542.9",3055.0
same,expression of mRNA (fluorescence intensity): TNF receptor,"[3]; control 906.2, LPS 24864.6",3467.0
same,expression of mRNA (fluorescence intensity): Fc receptor,"[3]; control 1244.4, LPS 20683.4",982.5
same,expression of mRNA (fluorescence intensity): Interferon regulatory factor,"[3]; control 1491.7, LPS 7554.9",1356.3
same,expression of mRNA (fluorescence intensity): Galectin-9,"[3]; control 1904.3, LPS 19639.3",3639.2
